According to patent publication US20100216785A1, “PHARMACEUTICAL COMPOSITIONS” (NEUROSCIENZE PHARMANESS S.C. A.R.L., priority 2009, published 2010):

Molecular target: T1, CB1 cannabinoidergic receptors (Mus musculus, UniProt P47746)
T1 construct: the complete brain (excluding the cerebellum) and the spleen were quickly dissected and kept in ice; from tissue; host or cells: mouse brain (excluding the cerebellum) membranes
Assay: Radioreceptor binding, displacement of [3H]-CP-55,940, CB1 receptors (mouse brain membranes)
Conditions: not given
Description: (§1) The affinity of the compounds towards the CB1 and CB2 cannabinoidergic receptors was evaluated in vitro by radioreceptor binding studies using the following method.
(§2) The technique of the receptor binding allows to establish if, and with which affinity and specificity, a specific compound binds to a particular receptor. To evaluate the affinity of a specific compound to a particular receptor it is necessary to challenge in a particular tissue preparation wherein those specific receptors are present the compound to be tested with a radioactive labelled compound whose affinity for the same receptors is known. […] The amount of radioactivity present in the receptor-compound complex allows furthermore to stimate with great accuracy the amount of compound bound to the receptor. By said method it is therefore possible to stablish quickly the affinity of a new compound towards a specific receptor and thus to determine its pharmacological activity. […]
(§3) The thus obtained membranes (50-80 μg of proteins) were incubated in the presence of 1 nM of [^3H]-CP55.940 for 1 hour at 30° C. in a final volume of 0.5 ml of TME buffer containing 5 mg/ml of bovine serum albumin (BSA). The non specific binding was measured in the presence of CP55.940 at a 1 μM concentration. […]
(§4) The radioactivity present in the filters was determined by a scintillator spectrophotometer (Tricarb® 2100, Packard, Meridien, USA). […]

T1 sequence (P47746 whole entry): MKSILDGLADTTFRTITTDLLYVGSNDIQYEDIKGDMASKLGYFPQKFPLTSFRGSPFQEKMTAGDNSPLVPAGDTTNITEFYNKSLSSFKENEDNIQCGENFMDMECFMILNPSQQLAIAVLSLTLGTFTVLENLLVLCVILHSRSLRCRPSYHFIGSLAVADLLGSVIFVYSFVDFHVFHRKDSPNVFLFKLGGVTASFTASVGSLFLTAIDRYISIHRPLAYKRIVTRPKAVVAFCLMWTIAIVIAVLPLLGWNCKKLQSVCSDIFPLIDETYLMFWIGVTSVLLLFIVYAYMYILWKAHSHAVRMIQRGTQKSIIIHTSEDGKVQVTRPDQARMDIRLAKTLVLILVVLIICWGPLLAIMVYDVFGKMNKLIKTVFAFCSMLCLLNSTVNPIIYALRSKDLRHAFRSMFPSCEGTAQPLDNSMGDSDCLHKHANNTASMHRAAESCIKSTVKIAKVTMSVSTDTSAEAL

Row | SMILES | Ki
1 | Cc1ccc2c(c1)oc1c(C(N)=O)nn(-c3ccc(Cl)cc3Cl)c12 [1-(2,4-dichlorophenyl)-6-methyl-1H-benzofuro[3,2-c]pyrazole-3-carboxamide] | > 3 µM

Molecular target: T2, CB2 cannabinoidergic receptors (Mus musculus, UniProt P47936)
T2 construct: the complete brain (excluding the cerebellum) and the spleen were quickly dissected and kept in ice; from tissue; host or cells: mouse spleen membranes
Assay: Radioreceptor binding, displacement of [3H]-CP-55,940, CB2 receptors (mouse spleen membranes)
Conditions: 1 nM [3H]-CP55,940, 1 hour at 30° C.
Description: as §1, §2, §3, §4

T2 sequence (P47936 whole entry): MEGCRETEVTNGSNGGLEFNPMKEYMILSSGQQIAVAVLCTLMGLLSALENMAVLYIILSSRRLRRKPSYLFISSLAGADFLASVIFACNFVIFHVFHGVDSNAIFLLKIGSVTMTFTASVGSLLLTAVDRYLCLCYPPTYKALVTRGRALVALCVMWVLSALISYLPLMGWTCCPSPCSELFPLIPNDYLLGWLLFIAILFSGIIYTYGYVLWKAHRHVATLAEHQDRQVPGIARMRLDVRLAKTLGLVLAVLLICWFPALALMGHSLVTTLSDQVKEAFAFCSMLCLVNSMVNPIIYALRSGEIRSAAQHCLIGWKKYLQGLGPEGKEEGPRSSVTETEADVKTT

Row | SMILES | Ki
2 | Cc1ccc2c(c1)oc1c(C(N)=O)nn(-c3ccc(Cl)cc3Cl)c12 [1-(2,4-dichlorophenyl)-6-methyl-1H-benzofuro[3,2-c]pyrazole-3-carboxamide] | > 3 µM

Tested on: not given
Assay: not given
Conditions: not given

Row | melting point | SMILES
3 | 178 to 180 °C | Cc1ccc2c(c1)oc1c(C(=O)NN3CCOCC3)nn(-c3ccc(Cl)cc3Cl)c12 [Example 3.22, N-morpholin-4yl-1-(2,4-dichlorophenyl)-6-methyl-1H-benzofuro[3,2-c]pyrazole-3-carboxamide]
4 | 70 to 72 °C | Cc1ccc2c(c1)oc1c(C(=O)N[C@H]3C[C@@H](C)CC[C@@H]3C(C)C)nn(-c3ccc(Cl)cc3Cl)c12 [Example 3.24, N-2-isopropyl-5-methyl-cyclohexyl-1-(2,4-dichlorophenyl)-6-methyl-1H-benzofuro[3,2-c]pyrazole-3-carboxamide]
5 | 209 to 211 °C | Cc1ccc2c(c1)oc1c(C(=O)NC3C4CC5CC(C4)CC3C5)nn(-c3ccc(Cl)cc3Cl)c12 (stereo not drawn) [Example 3.29, N-adamantan-2yl-1-(2,4-dichlorophenyl)-6-methyl-1H-benzofuro[3,2-c]pyrazole-3-carboxamide]
6 | 210 to 212 °C | Cc1ccc2c(c1)oc1c(C(=O)NC34CC5CC(CC(C5)C3)C4)nn(-c3ccc(Cl)cc3Cl)c12 [Example 3.28, N-adamantan-1yl-1-(2,4-dichlorophenyl)-6-methyl-1H-benzofuro[3,2-c]pyrazole-3-carboxamide]
7 | 85 to 87 °C | Cc1ccc2c(c1)oc1c(C(=O)N[C@@H]3C[C@H]4C[C@@H]([C@@H]3C)C4(C)C)nn(-c3ccc(Cl)cc3Cl)c12 [Example 3.25, N-2,6,6-trimethyl-bicyclo[3.1.1]hept-3yl-1-(2,4-dichlorophenyl)-6-methyl-1H-benzofuro[3,2-c]pyrazole-3-carboxamide]
8 | 78 to 80 °C | Cc1ccc2c(c1)oc1c(C(=O)NC3CC4CCC3(C)C4(C)C)nn(-c3ccc(Cl)cc3Cl)c12 (stereo not drawn) [Example 3.27, N-1,7,7-trimethyl-bicyclo[2.2.1]hept-2yl-1-(2,4-dichlorophenyl)-6-methyl-1H-benzofuro[3,2-c]pyrazole-3-carboxamide]
9 | 90 to 92 °C | Cc1ccc2c(c1)oc1c(C(=O)NN3CCCC3)nn(-c3ccc(Cl)cc3Cl)c12 [Example 3.21, N-pirrolidinyl-1-(2,4-dichlorophenyl)-6-methyl-1H-benzofuro[3,2-c]pyrazole-3-carboxamide]
10 | 140 to 142 °C | Cc1ccc2c(c1)oc1c(C(=O)NC3CCCCC3)nn(-c3ccc(Cl)cc3Cl)c12 [Example 3.23, N-cyclohexyl-1-(2,4-dichlorophenyl)-6-methyl-1H-benzofuro[3,2-c]pyrazole-3-carboxamide]
11 | 84 to 86 °C | Cc1ccc2c(c1)oc1c(C(=O)NC3C4(C)CCC(C4)C3(C)C)nn(-c3ccc(Cl)cc3Cl)c12 (stereo not drawn) [Example 3.26, N-1,3,3-trimethyl-bicyclo[2.2.1]hept-2yl-1-(2,4-dichlorophenyl)-6-methyl-1H-benzofuro[3,2-c]pyrazole-3-carboxamide]

Row | SMILES | melting point
12 | Cc1ccc2c(c1)oc1c(C(N)=O)nn(-c3ccc(Cl)cc3Cl)c12 [1-(2,4-dichlorophenyl)-6-methyl-1H-benzofuro[3,2-c]pyrazole-3-carboxamide] | 185 to 186 °C
